Experimental data from article PMC5897141 (Journal of neurochemistry, 2018).
Values joined by “and” are separate entries in the source; they are usually repeats but may differ in a detail not shown here. Identical values can stand only once. Like-named read-outs stand apart in the source and are kept apart here.

Tested on: VAChT
Assay type: in vivo, cynomolgus macaques
[1] = 2TCM, temporal cortex, mean ± SD, n = 3
[2] = 2TCM, thalamus, mean ± SD, n = 3
[3] = 2TCM, white matter, mean ± SD, n = 3
[4] = LoganAIF, striatum, mean ± SD, n = 3
[5] = MA1, striatum, mean ± SD, n = 3
[6] = RTM, reference cerebellum-hemispheres, striatum, mean ± SD, n = 7
[7] = SRTM, reference cerebellum-hemispheres, striatum, mean ± SD, n = 7
[8] = SRTM, frontal cortex, mean ± SD, n = 7
[9] = SRTM, hippocampus, mean ± SD, n = 7
[10] = SRTM, middle brain, mean ± SD, n = 7
[11] = SRTM, occipital cortex, mean ± SD, n = 7
[12] = SRTM, temporal cortex, mean ± SD, n = 7
[13] = SRTM, thalamus, mean ± SD, n = 7
[14] = SRTM, white matter, mean ± SD, n = 7

## O=C(c1ccc(F)cc1)C1CCN(C2Cc3c(cccc3OCCF)CC2O)CC1 (single isomer, unassigned; (-)) [[^18F]VAT, ((-)-(1-(-8-(2-fluoroethoxy)-3-hydroxy-1,2,3,4-tetrahydronaphthalen-2-yl)piperidin-4-yl)(4-fluorophenyl)-methanone)]
[1]
  k3 / k4: 0.74 ± 0.48
  k4: 0.005 ± 0.002 min⁻¹
[2]
  BPND = DVR-1: 1.16 ± 0.24
  K1: 0.112 ± 0.061 mL·cm^−3·min^−1
  VT: 10.09 ± 8.25 mL· cm^−3
  k2: 0.030 ± 0.004 min⁻¹
  k3: 0.006 ± 0.002 min⁻¹
  k3 / k4: 1.38 ± 0.26
  k4: 0.004 ± 0.001 min⁻¹
2TCM, vermis, mean ± SD, n = 3
  BPND = DVR-1: 0.22 ± 0.55
  K1: 0.180 ± 0.069 mL·cm^−3·min^−1
  VT: 4.77 ± 2.72 mL· cm^−3
  k2: 0.068 ± 0.005 min⁻¹
  k3: 0.004 ± 0.003 min⁻¹
  k3 / k4: 0.75 ± 0.43
  k4: 0.005 ± 0.001 min⁻¹
[3]
  BPND = DVR-1: 0.21 ± 0.13
  K1: 0.065 ± 0.041 mL·cm^−3·min^−1
  VT: 5.66 ± 4.49 mL· cm^−3
  k2: 0.026 ± 0.005 min⁻¹
  k3: 0.006 ± 0.002 min⁻¹
  k3 / k4: 1.01 ± 0.32
  k4: 0.006 ± 0.001 min⁻¹
[4]
  BPND: 2.58 ± 0.9 (20%)
  DVR: 3.58 ± 0.9 (15%)
  VT: 16.87 ± 17 (58%) mL· cm^−3
LoganREF, reference cerebellum-hemispheres, striatum, mean ± SD, n = 7
  DVR: 3.11 ± 0.43 (5%)
LoganREF, frontal cortex, mean ± SD, n = 7
  BPND: 0.29 ± 0.2
LoganREF, hippocampus, mean ± SD, n = 7
  BPND: 0.47 ± 0.3
LoganREF, middle brain, mean ± SD, n = 7
  BPND: 0.15 ± 0.2
LoganREF, occipital cortex, mean ± SD, n = 7
  BPND: 0.13 ± 0.1
LoganREF, scan duration for analysis 45 min, mean ± SD, n = 7
  Striatal BPND: 1.60 ± 0.58
LoganREF, scan duration for analysis 60 min, mean ± SD, n = 7
  Striatal BPND: 1.69 ± 0.49
LoganREF, scan duration for analysis 90 min, mean ± SD, n = 7
  Striatal BPND: 1.86 ± 0.45
LoganREF, temporal cortex, mean ± SD, n = 7
  BPND: 0.11 ± 0.1
LoganREF, thalamus, mean ± SD, n = 7
  BPND: 0.76 ± 0.3
LoganREF, vermis, mean ± SD, n = 7
  BPND: 0.063 ± 0.2
LoganREF, white matter, mean ± SD, n = 7
  BPND: 0.17 ± 0.2
[5]
  BPND: 2.17 ± 1 (27%)
  DVR: 3.17 ± 1 (18%)
  VT: 21.45 ± 14 (38%) mL· cm^−3
[6]
  BPND: 2.11 ± 0.46 (8%)
  DVR: 3.11 ± 0.46 (6%)
  R1 = K1/K1′: ( ^*** R1 = K1/K1′ 0.847 ± 0.08 (4%))
  k2: 0.17 ± 0.16 (36%) min^−1
  k3: 0.05 ± 0.04 (30%) min^−1
  k4: 0.025 ± 0.02 (30%) min^−1
[7]
  DVR: 3.15 ± 0.46 (6%)
  k2: 0.032 ± 0.007 (8%) min^−1 and 0.032 ± 0.01 min^−1
[8]
  BPND: 0.32 ± 0.2
  R1: 0.82 ± 0.3
  k2: 0.055 ± 0.02 min⁻¹
[9]
  BPND: 0.48 ± 0.2
  R1: 0.79 ± 0.1
  k2: 0.053 ± 0.04 min⁻¹
[10]
  BPND: 0.17 ± 0.1
  R1: 0.74 ± 0.2
  k2: 0.066 ± 0.1 min⁻¹
[11]
  BPND: 0.12 ± 0.1
  R1: 0.81 ± 0.3
  k2: 0.053 ± 0.02 min⁻¹
SRTM, scan duration for analysis 45 min, mean ± SD, n = 7
  Striatal BPND: 2.67 ± 1.14
SRTM, scan duration for analysis 60 min, mean ± SD, n = 7
  Striatal BPND: 2.14 ± 0.49
SRTM, scan duration for analysis 90 min, mean ± SD, n = 7
  Striatal BPND: 2.18 ± 0.37
[12]
  BPND: 0.10 ± 0.08
  R1: 0.63 ± 0.2
  k2: 0.074 ± 0.07 min⁻¹
[13]
  BPND: 0.79 ± 0.3
  R1: 0.95 ± 0.2
  k2: 0.059 ± 0.02 min⁻¹
SRTM, vermis, mean ± SD, n = 7
  BPND: 0.081 ± 0.07
  R1: 1.08 ± 0.4
  k2: 0.064 ± 0.6 min⁻¹
[14]
  BPND: 0.17 ± 0.2
  R1: 0.47 ± 0.1
  k2: 0.032 ± 0.01 min⁻¹
After tracer injection
  time of peak striatal uptake: about 20 min
